According to ChEMBL document CHEMBL4602673, “Insights into Protein-Ligand Interactions in Integrin Complexes: Advances in Structure Determinations” (J Med Chem, 2020):
One block for each molecule: values may come before it. Bridge positions count the residues as written; N and C are the ends. Square brackets hold non-standard residues; d marks the D form. Peptide text beside a SMILES is read from it. hArg = N=C(N)NCCCC[C@H](N)C(=O)O; Mpa = O=C(O)CCS

Assays:
[1] = target: T1, Integrin alpha-L/beta-2 (LFA-1) (Homo sapiens, UniProt P05107+P20701); assay: Binding affinity to human lymphocyte integrin alphaL beta2 (Cys125 to Gly311residues) expressed in Escherichia coli XL-1B cells by isothermal titration calorimetry
T1 sequence (P20701 whole entry): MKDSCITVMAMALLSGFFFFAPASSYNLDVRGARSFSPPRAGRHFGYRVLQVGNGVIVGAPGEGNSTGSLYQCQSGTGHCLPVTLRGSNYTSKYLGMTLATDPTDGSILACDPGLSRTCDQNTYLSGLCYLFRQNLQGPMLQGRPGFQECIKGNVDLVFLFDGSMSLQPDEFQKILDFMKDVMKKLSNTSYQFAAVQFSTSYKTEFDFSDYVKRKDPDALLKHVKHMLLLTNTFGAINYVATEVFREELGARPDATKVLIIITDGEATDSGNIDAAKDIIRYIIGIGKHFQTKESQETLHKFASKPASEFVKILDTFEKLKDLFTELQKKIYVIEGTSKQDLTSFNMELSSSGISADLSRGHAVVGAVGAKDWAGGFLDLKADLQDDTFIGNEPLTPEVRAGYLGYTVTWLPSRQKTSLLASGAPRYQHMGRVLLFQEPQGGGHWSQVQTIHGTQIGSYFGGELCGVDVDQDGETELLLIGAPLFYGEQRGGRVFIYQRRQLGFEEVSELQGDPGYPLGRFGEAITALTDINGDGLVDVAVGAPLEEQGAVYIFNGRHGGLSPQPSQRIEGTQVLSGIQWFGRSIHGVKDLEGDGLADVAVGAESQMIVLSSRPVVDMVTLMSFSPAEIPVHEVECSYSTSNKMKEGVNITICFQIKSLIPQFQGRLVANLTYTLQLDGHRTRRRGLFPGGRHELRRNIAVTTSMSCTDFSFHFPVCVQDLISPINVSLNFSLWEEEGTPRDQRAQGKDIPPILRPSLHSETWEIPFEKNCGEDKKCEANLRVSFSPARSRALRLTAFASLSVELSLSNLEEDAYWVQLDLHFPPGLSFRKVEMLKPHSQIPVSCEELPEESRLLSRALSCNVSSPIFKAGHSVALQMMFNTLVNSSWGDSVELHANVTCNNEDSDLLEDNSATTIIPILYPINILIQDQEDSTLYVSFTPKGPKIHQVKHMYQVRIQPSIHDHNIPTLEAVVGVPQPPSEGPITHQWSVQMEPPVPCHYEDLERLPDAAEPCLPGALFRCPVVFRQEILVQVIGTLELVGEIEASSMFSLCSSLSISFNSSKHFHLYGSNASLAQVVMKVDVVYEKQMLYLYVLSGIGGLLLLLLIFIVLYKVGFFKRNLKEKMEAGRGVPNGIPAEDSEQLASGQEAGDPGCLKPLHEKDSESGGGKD
T1 sequence (P05107 whole entry): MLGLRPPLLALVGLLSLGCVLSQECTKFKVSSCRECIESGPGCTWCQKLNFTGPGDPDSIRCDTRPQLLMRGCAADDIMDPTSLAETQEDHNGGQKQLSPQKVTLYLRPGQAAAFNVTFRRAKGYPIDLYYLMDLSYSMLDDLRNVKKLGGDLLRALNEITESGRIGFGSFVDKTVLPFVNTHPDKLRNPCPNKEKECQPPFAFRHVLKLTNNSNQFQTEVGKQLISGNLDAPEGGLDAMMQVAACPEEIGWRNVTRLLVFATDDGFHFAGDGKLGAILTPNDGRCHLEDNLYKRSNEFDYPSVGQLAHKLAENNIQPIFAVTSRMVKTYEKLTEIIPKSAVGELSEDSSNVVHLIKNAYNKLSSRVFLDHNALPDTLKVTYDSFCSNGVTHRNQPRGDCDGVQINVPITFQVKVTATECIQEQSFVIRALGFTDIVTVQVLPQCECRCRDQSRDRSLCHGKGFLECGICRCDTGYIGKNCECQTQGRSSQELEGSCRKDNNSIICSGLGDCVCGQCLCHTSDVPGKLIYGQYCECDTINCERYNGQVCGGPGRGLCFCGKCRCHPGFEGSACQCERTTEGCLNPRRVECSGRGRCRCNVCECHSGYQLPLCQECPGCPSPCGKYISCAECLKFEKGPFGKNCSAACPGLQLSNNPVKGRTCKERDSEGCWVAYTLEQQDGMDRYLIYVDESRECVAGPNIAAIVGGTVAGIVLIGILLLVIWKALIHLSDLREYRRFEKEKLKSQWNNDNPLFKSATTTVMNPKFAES

[2] = target: T2, Integrin alpha-V/beta-3 (Homo sapiens, UniProt P05106+P06756); assay: Inhibition of human integrin alphavbeta3 expressed in HEK293 cells assessed as reduction in cell adhesion to fibrinogen preincubated for 20 mins followed by phosphatase substrate addition and measured after 1 hr by spectrophotometry; type: cell-based
T2 sequence (P05106 27-788 limits assumed): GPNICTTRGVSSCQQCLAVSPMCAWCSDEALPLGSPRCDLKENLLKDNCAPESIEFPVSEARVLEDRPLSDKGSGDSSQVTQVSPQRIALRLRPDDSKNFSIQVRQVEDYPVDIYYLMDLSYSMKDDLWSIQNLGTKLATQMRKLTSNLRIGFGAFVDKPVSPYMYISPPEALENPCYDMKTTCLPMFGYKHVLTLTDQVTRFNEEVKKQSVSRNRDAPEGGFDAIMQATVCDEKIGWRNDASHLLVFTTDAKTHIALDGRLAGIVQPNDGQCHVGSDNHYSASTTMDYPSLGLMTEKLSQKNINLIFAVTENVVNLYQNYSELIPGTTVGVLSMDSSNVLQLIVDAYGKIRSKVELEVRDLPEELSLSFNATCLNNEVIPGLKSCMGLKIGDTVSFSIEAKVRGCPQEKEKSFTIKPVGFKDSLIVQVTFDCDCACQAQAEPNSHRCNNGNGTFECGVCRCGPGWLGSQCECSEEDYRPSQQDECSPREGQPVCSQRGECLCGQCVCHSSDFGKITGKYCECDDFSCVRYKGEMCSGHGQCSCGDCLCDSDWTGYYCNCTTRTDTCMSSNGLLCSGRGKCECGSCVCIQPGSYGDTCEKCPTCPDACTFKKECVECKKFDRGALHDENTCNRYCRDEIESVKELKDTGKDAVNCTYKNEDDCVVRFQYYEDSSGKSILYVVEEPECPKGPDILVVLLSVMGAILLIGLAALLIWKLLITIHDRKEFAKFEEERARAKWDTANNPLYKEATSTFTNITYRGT
T2 sequence (P06756 31-889 limits assumed): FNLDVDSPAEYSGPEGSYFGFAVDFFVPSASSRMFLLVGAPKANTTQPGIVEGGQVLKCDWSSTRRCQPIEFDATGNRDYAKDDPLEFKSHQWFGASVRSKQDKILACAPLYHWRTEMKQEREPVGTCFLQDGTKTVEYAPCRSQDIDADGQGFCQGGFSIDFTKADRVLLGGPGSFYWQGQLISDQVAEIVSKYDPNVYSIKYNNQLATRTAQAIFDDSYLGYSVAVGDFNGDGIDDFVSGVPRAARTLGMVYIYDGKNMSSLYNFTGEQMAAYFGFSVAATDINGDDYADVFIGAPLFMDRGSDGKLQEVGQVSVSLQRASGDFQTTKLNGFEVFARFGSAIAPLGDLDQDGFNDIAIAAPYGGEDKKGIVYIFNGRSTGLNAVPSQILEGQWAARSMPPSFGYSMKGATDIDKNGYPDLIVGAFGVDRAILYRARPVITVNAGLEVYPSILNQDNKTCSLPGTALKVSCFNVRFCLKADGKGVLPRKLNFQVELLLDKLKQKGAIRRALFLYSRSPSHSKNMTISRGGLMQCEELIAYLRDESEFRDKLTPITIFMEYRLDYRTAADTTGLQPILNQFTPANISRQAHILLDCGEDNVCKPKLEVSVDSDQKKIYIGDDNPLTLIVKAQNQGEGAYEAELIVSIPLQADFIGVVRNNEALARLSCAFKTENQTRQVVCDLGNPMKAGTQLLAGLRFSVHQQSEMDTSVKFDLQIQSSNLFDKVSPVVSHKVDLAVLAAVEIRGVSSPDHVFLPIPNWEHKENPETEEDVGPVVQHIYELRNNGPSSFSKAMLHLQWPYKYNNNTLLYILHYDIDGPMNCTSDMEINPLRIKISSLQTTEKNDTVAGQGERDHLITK
T2 sequence (P06756 891-1048 limits assumed): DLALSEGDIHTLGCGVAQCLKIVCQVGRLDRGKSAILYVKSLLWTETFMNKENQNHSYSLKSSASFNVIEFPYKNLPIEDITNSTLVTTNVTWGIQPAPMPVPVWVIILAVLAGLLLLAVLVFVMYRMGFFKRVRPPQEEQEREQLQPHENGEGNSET

[3] = target: Integrin alpha-4/beta-1 (Homo sapiens, UniProt P05556+P13612); assay: Binding affinity to human integrin alpha4beta1 incubated for 6 hrs by radioligand binding assay; type: protein-complex assay
[4] = target: Integrin alpha2/beta1 (Homo sapiens, UniProt P05556+P17301); assay: Inhibition of human alpha2 beta1 expressed in CHO cells assessed as reduction in cell adhesion to collagen type 1 incubated for 5 mins by DiOC6 dye based fluorescence microscopy
[5] = target: T1, Integrin alpha-L/beta-2 (LFA-1); assay: Inhibition of human integrin alphaL beta2 assessed as reduction in integrin alphaL beta2/ICAM1 protein-protein interaction by ELISA; type: protein-complex assay
[6] = target: Integrin alpha-IIb/beta-3 (Homo sapiens, UniProt P05106+P08514); assay: Inhibition of FITC-dodecapeptide binding to human integrin alpha2b beta3 receptor stably expressed in CHO Lec.3.2.8.1 cells by fluorescence anisotropy; type: cell-based
Chain of Integrin alpha-IIb/beta-3 (P05106 27-788 limits assumed): as the sequence (P05106 27-788 limits assumed) above
Chain of Integrin alpha-IIb/beta-3 (P08514 32-887 limits assumed): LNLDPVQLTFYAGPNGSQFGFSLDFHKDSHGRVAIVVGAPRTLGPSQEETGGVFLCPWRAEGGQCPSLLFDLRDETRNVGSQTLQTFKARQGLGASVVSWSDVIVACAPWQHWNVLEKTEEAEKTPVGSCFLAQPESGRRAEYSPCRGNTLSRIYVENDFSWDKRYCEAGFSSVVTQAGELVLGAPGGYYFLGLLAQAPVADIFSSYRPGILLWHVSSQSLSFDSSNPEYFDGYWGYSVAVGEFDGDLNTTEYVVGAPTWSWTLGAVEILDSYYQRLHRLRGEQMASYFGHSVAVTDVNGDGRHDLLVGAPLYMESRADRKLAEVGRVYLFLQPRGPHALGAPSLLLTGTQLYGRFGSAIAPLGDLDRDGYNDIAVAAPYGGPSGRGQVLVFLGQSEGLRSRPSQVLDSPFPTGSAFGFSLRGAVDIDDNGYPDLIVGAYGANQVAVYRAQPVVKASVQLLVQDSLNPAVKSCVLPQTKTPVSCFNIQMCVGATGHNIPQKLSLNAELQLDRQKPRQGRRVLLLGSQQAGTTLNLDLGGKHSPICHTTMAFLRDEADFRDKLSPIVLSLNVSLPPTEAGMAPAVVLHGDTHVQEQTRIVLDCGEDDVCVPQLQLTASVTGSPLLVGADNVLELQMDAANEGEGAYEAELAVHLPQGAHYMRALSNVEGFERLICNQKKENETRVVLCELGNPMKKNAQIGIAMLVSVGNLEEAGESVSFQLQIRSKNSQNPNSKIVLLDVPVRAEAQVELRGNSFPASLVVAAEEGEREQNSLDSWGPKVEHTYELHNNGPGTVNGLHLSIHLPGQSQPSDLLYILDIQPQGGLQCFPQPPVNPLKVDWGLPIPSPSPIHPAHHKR
Chain of Integrin alpha-IIb/beta-3 (P08514 891-1039 limits assumed): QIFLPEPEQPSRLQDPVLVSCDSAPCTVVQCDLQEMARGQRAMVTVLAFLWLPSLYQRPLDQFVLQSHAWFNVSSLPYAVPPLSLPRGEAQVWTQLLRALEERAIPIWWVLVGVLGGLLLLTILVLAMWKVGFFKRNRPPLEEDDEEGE

[7] = target: Integrin alpha-V/beta-1 (Homo sapiens, UniProt P05556+P06756); assay: Displacement of [3H] C8 from human integrin alphavbeta1 incubated for 6 hrs by competition binding assay; type: protein-complex assay
[8] = target: T2, Integrin alpha-V/beta-3; assay: Inhibition of human integrin alphavbeta3 (unknown origin); type: protein-complex assay

Compound: CCOc1ccccc1Sc1ccc(-c2ccnc(N3CCN(C(C)=O)CC3)c2)cc1[N+](=O)[O-]
Kd [1]: 18.3 nM

Compound: CN(c1ccc(NC(=O)Nc2ccccc2)cc1)S(=O)(=O)c1cnn(-c2ccc(F)cc2)c1
EC50 [4]: 130 nM

Compound: N=C(N)c1ccc(C(=O)NCCC(=O)N[C@@H](CC(=O)O)C(=O)NC(Cc2ccccc2)C(=O)O)cc1 (some centres not stated)
IC50 [6]: 0.6 nM

Compound: O=C(CCCCc1ccc2c(n1)NCCC2)NCC[C@H](NC(=O)c1nc2ccccc2s1)C(=O)O
IC50 [2]: 25 nM

Compound: CN(c1ccc(NC(=O)Nc2ccccc2)cc1)S(=O)(=O)c1ccc(-c2ccnn2C)s1
EC50 [4]: 160 nM

Compound: CCNC(=O)Nc1cnnc(-c2ccc(C[C@H](NC(=O)c3c(Cl)cccc3Cl)C(=O)O)cc2)c1
Ki [7]: 0.166 nM

Compound: O=C(NC[C@H](NS(=O)(=O)c1cccnc1)C(=O)O)c1cc2cc(CCC3CCNCC3)sc2s1
IC50 [8]: 8 to 19 nM

The next lines start with the values.

IC50 [2]: 3 nM
Compound: COc1ccc([C@H](CC(=O)O)N2CCN(CCCc3ccc4c(n3)NCCC4)C2=O)cn1

Kd [3]: 0.794 nM
Compound: N=C(N)NCCCCC(=O)Nc1ccc(C[C@H](NC(=O)[C@@H]2CCCN2S(=O)(=O)c2ccccc2)C(=O)O)cc1

IC50 [5]: 50 nM
Compound: CC[C@H](C)C(=O)OC1C[C@@H](C)C=C2C=C[C@H](C)[C@H](CC[C@@H]3C[C@H](CC(=O)NC)N(Cc4ccc(O)c(OC)c4)C(=O)O3)[C@H]21 (some centres not stated)

IC50 [5]: 200 nM
Compound: CC[C@H](C)C(=O)O[C@H]1C[C@@H](C)C=C2C=C[C@H](C)[C@H](CCC3C[C@@H](O)CC(=O)N3Cc3ccc4c(CO)c(OC)ccc4c3)[C@H]21 (some centres not stated)

Kd [8]: 120 nM
Compound: N=C(N)NCCCC[C@@H]1NC(=O)CCSSC[C@@H](C(N)=O)NC(=O)[C@@H]2CCCN2C(=O)[C@H](Cc2c[nH]c3ccccc23)NC(=O)[C@H](CC(=O)O)NC(=O)CNC1=O [EPTIFIBATIDE] ([Mpa][hArg]GDWPC-NH2; disulfide 1-7)
